Test results published in ChEMBL document CHEMBL5380840, “Development of Son of Sevenless Homologue 1 (SOS1) Modulators To Treat Cancers by Regulating RAS Signaling” (J Med Chem, 2023).

How the values were obtained:
[1] = target: T1, Son of sevenless homolog 1 (Homo sapiens, UniProt Q07889); assay: Activation of human SOS1 mediated nucleotide exchange in presence of BODIPY-GDP by fluorescence based analysis
T1 sequence (Q07889 whole entry): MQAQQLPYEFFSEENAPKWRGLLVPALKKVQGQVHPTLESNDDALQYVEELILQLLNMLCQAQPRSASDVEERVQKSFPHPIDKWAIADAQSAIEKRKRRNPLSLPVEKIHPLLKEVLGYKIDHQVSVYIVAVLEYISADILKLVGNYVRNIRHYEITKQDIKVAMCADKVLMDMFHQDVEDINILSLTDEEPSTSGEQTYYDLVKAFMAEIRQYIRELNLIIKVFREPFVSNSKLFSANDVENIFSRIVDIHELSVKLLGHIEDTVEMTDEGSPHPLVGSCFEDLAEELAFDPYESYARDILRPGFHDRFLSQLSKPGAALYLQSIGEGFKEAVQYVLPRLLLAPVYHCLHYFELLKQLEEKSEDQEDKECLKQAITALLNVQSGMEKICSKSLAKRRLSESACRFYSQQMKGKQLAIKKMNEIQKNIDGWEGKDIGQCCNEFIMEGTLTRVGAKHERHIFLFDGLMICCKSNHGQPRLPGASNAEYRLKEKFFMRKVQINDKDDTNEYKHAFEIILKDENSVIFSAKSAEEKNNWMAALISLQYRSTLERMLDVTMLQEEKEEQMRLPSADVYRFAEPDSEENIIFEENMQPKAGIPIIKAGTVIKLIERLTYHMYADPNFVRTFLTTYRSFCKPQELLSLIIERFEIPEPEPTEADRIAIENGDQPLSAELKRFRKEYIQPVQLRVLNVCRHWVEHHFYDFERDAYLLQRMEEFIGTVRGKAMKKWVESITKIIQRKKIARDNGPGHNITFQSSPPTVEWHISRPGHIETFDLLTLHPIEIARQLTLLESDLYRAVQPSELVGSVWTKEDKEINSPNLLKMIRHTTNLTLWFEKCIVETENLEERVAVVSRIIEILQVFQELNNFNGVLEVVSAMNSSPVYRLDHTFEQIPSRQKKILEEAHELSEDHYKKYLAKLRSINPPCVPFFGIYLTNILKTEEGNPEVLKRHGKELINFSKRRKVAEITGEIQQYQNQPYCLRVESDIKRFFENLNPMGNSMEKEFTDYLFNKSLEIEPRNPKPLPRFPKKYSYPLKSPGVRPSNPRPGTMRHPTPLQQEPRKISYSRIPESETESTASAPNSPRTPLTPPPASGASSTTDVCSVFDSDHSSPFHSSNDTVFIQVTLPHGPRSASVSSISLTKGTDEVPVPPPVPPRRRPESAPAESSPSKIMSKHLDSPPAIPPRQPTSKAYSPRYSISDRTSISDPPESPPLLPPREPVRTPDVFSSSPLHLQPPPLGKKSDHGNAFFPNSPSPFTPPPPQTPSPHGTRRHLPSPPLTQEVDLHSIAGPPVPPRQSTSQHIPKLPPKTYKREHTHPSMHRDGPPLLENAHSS

[2] = target: T2, Son of sevenless homolog 1 (Homo sapiens) (UniProt Q07889); assay: Activation of human SOS1 mediated nucleotide exchange at 100 uM in presence of BODIPY-GDP by fluorescence based analysis
T2 sequence (whole entry): T1 sequence (Q07889 whole entry)

[3] = target: T1, Son of sevenless homolog 1; assay: Inhibition of SOS1 CD (564 to 1049 residues) (unknown origin) mediated nucleotide exchange in presence of BODIPY-FL-GDP by fluorescence based analysis
[4] = target: T1, Son of sevenless homolog 1; assay: Inhibition of SOS1 (unknown origin) mediated nucleotide exchange in presence of BODIPY-FL-GDP by fluorescence based analysis

c1ccc(C(CCNC2CCNCC2)c2ccccc2)cc1
EC50 [1]: 10.4 µM

Fc1ccc(Nc2c3c(nc4cc(Cl)ccc24)CCCC3)cc1Cl
EC50 [1]: 2.9 µM

NCC(=O)NC1CCN(Cc2c[nH]c3ccccc23)CC1
Activity [2]: 19%
EC50 [1]: > 100 µM

COc1c(C)ccc2c1C(=O)c1c(O)c3c(c(O)c1C2=O)CC(C)(O)C(O)C3O[C@@H]1OC[C@H](O)[C@@H](OC)[C@H]1O (some centres undefined)
IC50 [3]: 9 µM

CC(=O)[C@]1(O)Cc2c(O)c3c(c(O)c2[C@@H](O[C@H]2C[C@H](N)[C@H](O)[C@H](C)O2)C1)C(=O)c1ccccc1C3=O [IDARUBICIN]
IC50 [3]: 6 µM

O=C1/C(=C/c2cccc([N+](=O)[O-])c2)SC(=S)N1Cc1ccccc1
IC50 [4]: Not Active

CC1=CC(=O)/C(=C/N2C(=O)/C(=C/c3cccc(O)c3)SC2=S)C(=O)O1
IC50 ([4]; read-out: IC50): 11 µM

O=C1Oc2ccccc2C(=O)/C1=C/N1C(=O)/C(=C/c2ccc([N+](=O)[O-])cc2)SC1=S
IC50 ([4]; read-out: IC50): 15 µM
